We go through seven compounds from ChEMBL document CHEMBL1201862, “PubChem BioAssay data set” (2004).

Among the test systems are K562; Hs-578T; MDA-MB-231; MOLT-4; CCRF-CEM; NCI-H460; SF-295; MCF7; HL-60; SW-620; A498; M14; OVCAR-3; Malme-3M; COLO 205; HCT-116; KM12; SK-MEL-2; UACC-62; HCC 2998.
Assay in all cases: NCI-60 cell line screen, 48 h

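96-well plates; 48 h exposure; 5 concentrations. Endpoints by linear interpolation between flanking doses. Not reached: highest tested concentration assigned. GI50 is the concentration that inhibits growth by half.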 Calls of active or inactive are those of the source. Rule as the data show it: active = GI50 up to about 1.1 µM and inactive = higher.

For the compound `COC(=O)c1ccccc1OCc1cc(=O)oc2ccc(C)cc12`, the GI50 was > 100 µM (inactive) in the assay with K562; 27.3 µM (inactive) with Hs-578T; 84.9 µM (inactive) with MDA-MB-231; > 100 µM (inactive) with MOLT-4; > 100 µM (inactive) with CCRF-CEM; > 100 µM (inactive) with NCI-H460. Also, the GI50 was 28.2 µM (inactive) in the assay on SF-295; 21.4 µM (inactive) in the assay on MCF7; > 100 µM (inactive) in the assay with HL-60; > 65.8 µM (inactive) in the assay with SW-620; > 100 µM (inactive) in the assay with A498; > 87.7 µM (inactive) in the assay with M14. The GI50 in the assay on OVCAR-3 was 29.4 µM (inactive); in the assay on Malme-3M, > 100 µM (inactive); in the assay with COLO 205 it was > 100 µM (inactive); with HCT-116, 43.1 µM (inactive); in the assay on KM12, > 100 µM (inactive); with SK-MEL-2, > 42.6 µM (inactive). The figures for the GI50 with UACC-62 and in the assay on HCC 2998 were > 39.2 µM (inactive) and > 100 µM (inactive), respectively.
On to `COc1ccccc1Cn1c2c(c3c(C(=O)NCCN(C)C)c(O)ccc31)C(=O)c1ccccc1C2=O`, for which the GI50 in the assay with K562 is 0.977 µM (active); in the assay on Hs-578T, 1.9 µM (inactive); in the assay with MDA-MB-231, 1.99 µM (inactive); with MOLT-4 it was 1.06 µM (active); with CCRF-CEM, 0.298 µM (active); with NCI-H460 it was 2.09 µM (inactive). Also, the GI50 is 1.87 µM (inactive) in the assay with SF-295; 1.47 µM (inactive) with MCF7; 1.01 µM (active) with HL-60; 5.26 µM (inactive) in the assay with A498; 1.32 µM (inactive) with M14; 1.99 µM (inactive) with OVCAR-3. Also, the GI50 in the assay on Malme-3M was 1.63 µM (inactive); in the assay with COLO 205, 1.94 µM (inactive); in the assay with HCT-116, 0.759 µM (active); in the assay with KM12, 1.59 µM (inactive); with SK-MEL-2, 1.69 µM (inactive); in the assay with UACC-62, 1.83 µM (inactive). Also, the GI50 in the assay on HCC 2998 was 1.66 µM (inactive).
Regarding `CCC[C@H](N[S+]([O-])c1ccc(C)cc1)C(C(=O)OCC)=C(c1ccccc1)c1ccccc1` (stereo partly drawn), the GI50 in the assay on K562 was 21.3 µM (inactive); in the assay on Hs-578T it was 25.8 µM (inactive); with MDA-MB-231 it was 18.7 µM (inactive); in the assay with MOLT-4, 16.2 µM (inactive); in the assay on CCRF-CEM, 26 µM (inactive); with NCI-H460, 17 µM (inactive). Moreover, the GI50 in the assay with SF-295 is 17.8 µM (inactive); in the assay on MCF7, 16.6 µM (inactive); in the assay on HL-60 it was 21.4 µM (inactive); with SW-620 it was 57.4 µM (inactive); in the assay with A498, 19.7 µM (inactive); in the assay on M14, 22 µM (inactive). Also, the GI50 with Malme-3M is 17.4 µM (inactive); with COLO 205, 22.2 µM (inactive); with HCT-116, 14.1 µM (inactive); in the assay on KM12 it was 18.6 µM (inactive); in the assay on SK-MEL-2, 14.5 µM (inactive); with UACC-62, 13.4 µM (inactive). Besides, the GI50 with HCC 2998 was 3.13 µM (inactive).
In the case of `CC(=O)c1sc(=N)n(-c2c(C)cccc2C)c1C`, the GI50 in the assay with K562, in the assay with Hs-578T, in the assay on MDA-MB-231, in the assay on MOLT-4, in the assay on CCRF-CEM and in the assay with NCI-H460 was > 100 µM (inactive) in each case. For the same compound, the GI50 in the assay with MCF7, with HL-60, in the assay on SW-620, in the assay with A498, with M14 and with OVCAR-3 was > 100 µM (inactive) throughout. Besides, the GI50 with Malme-3M, with COLO 205, with KM12, with SK-MEL-2, in the assay on UACC-62 and in the assay on HCC 2998 was > 100 µM (inactive) in each case.
In the case of `C=Cc1c(C)c(OC)cc2c1Oc1ccc(OC)c(C)c1CC2`, the GI50 with K562, in the assay with Hs-578T, with MDA-MB-231, in the assay with MOLT-4, with CCRF-CEM and with NCI-H460 was > 100 µM (inactive) throughout. Besides, the GI50 with SF-295, with MCF7, in the assay on HL-60, in the assay with SW-620, in the assay with A498 and with M14 was > 100 µM (inactive) throughout. Moreover, the GI50 in the assay with Malme-3M, in the assay on COLO 205, with HCT-116, with KM12, in the assay with SK-MEL-2 and with UACC-62 was > 100 µM (inactive) throughout. Moreover, the GI50 in the assay on HCC 2998 is > 100 µM (inactive).
Take `CCOC(=O)C(CC(C)C)NC(=O)CSc1nnc(COc2ccc(Cl)cc2)n1-c1ccccc1` (stereo not drawn): the GI50 with K562 is 19.3 µM (inactive); with Hs-578T, 22.3 µM (inactive); in the assay with MDA-MB-231, 16.9 µM (inactive); in the assay on MOLT-4, 4.51 µM (inactive); in the assay with CCRF-CEM it was 5.08 µM (inactive); in the assay on NCI-H460 it was 14.9 µM (inactive). For the same compound, the GI50 with MCF7 was 18.5 µM (inactive); in the assay on HL-60, 21 µM (inactive); in the assay on SW-620, 20 µM (inactive); with A498, 12.7 µM (inactive); in the assay with M14, 18 µM (inactive); in the assay with OVCAR-3 it was 10.5 µM (inactive). The GI50 with Malme-3M is 19.3 µM (inactive); in the assay on COLO 205, 18.2 µM (inactive); with HCT-116, 14.8 µM (inactive); in the assay with KM12 it was 18 µM (inactive); with SK-MEL-2, 16.3 µM (inactive); in the assay on UACC-62, 16.4 µM (inactive). In the assay with HCC 2998, the GI50 was 10.4 µM (inactive).
Take `COc1cc2cc(C(=O)N3CC(CCl)c4c3cc([N+](C)(C)Cc3ccc([N+](=O)[O-])n3C)c3ccccc43)[nH]c2c(OC)c1OC` (stereo not drawn): the GI50 is 6.76 µM (inactive) with Hs-578T; 2.42 µM (inactive) in the assay on MDA-MB-231; 1.93 µM (inactive) in the assay on MOLT-4; 1.77 µM (inactive) in the assay with CCRF-CEM; 0.327 µM (active) in the assay with NCI-H460; 1.31 µM (inactive) in the assay with SF-295. In addition, the GI50 with MCF7 is 1.46 µM (inactive); in the assay with HL-60, 1.15 µM (inactive); in the assay with SW-620, 1.69 µM (inactive); in the assay with A498 it was 0.153 µM (active); with M14, 3.61 µM (inactive); in the assay on OVCAR-3, 4.06 µM (inactive). In addition, the GI50 is 3.79 µM (inactive) in the assay on Malme-3M; 0.989 µM (active) in the assay on COLO 205; 1.48 µM (inactive) in the assay with HCT-116; 2.14 µM (inactive) in the assay with KM12; 0.374 µM (active) with SK-MEL-2; 1.12 µM (inactive) in the assay with UACC-62. Besides, the GI50 in the assay with HCC 2998 is 0.3 µM (active).
